Legend:
[1] = molecular target: Sodium-dependent dopamine transporter (Homo sapiens) (UniProt Q01959); assay: Binding affinity to human DA transporter assessed as inhibition of control specific binding at 10 uM
[2] = Cmax in Wistar rat at 29.73 mg/kg, po; assay type: ADME, organism-based; design: dose 29.73 mg/kg, route oral; details: in vivo
[3] = Oral bioavailability in Wistar rat at 29.73 mg/kg; assay type: ADME, organism-based; details: in vivo
[4] = Plasma protein binding in rat; assay type: ADME, cell-free; details: read-out: PPB (converted)
[5] = Plasma protein binding in human; assay type: ADME, cell-free; details: read-out: PPB (converted)
[6] = molecular target: Transient receptor potential cation channel subfamily V member 4 (Rattus norvegicus, UniProt Q9ERZ8); assay: Antagonist activity at rat TRPV4 expressed in HEK293 cells assessed as inhibition of 20% hypotonic solution-induced Ca2+ influx; assay type: cell-based
[7] = molecular target: Transient receptor potential cation channel subfamily V member 4 (Mus musculus, UniProt Q9EPK8); assay: Antagonist activity at mouse TRPV4 receptor expressed in HEK293 cells assessed as inhibition of 4alpha-PDD-stimulated calcium flux after 10 mins; assay type: cell-based
Transient receptor potential cation channel subfamily V member 4 (Mus musculus, UniProt Q9EPK8), sequence (Q9EPK8 whole entry): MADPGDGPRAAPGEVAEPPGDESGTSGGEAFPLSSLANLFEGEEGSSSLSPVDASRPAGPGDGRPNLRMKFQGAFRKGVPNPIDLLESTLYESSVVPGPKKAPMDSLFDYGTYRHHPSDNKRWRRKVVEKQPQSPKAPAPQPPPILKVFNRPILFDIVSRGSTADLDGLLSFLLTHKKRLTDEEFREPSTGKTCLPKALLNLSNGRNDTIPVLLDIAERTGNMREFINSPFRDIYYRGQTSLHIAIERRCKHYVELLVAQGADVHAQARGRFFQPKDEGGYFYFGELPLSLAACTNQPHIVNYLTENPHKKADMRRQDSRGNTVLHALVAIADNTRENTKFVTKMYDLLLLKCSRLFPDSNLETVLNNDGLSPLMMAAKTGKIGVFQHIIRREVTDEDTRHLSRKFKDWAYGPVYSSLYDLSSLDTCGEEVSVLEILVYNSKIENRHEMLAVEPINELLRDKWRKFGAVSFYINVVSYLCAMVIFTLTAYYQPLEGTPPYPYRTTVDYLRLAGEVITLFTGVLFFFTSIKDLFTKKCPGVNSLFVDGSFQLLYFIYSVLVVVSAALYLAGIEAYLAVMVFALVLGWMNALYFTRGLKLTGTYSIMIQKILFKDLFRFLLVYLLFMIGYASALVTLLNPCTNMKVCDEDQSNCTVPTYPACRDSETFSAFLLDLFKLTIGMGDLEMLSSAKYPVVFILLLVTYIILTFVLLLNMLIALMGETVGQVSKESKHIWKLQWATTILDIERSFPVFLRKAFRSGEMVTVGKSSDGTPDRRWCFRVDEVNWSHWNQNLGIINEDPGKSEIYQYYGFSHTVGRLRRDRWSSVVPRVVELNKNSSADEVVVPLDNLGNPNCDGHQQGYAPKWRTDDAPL

[8] = molecular target: Transient receptor potential cation channel subfamily V member 1 (Homo sapiens, UniProt Q8NER1); assay: Antagonist activity at human TRPV1 receptor expressed in HEK293 cells assessed as inhibition of capsaicin-stimulated calcium flux after 10 mins; assay type: cell-based
[9] = molecular target: Transient receptor potential cation channel subfamily V member 3 (Homo sapiens, UniProt Q8NET8); assay: Antagonist activity at human TRPV3 receptor expressed in HEK293 cells assessed as inhibition of capsaicin-stimulated calcium flux after 10 mins; assay type: cell-based
[10] = molecular target: Transient receptor potential cation channel subfamily M member 8 (Homo sapiens, UniProt Q7Z2W7); assay: Antagonist activity at human TRPM8 receptor expressed in HEK293 cells assessed as inhibition of menthol-stimulated calcium flux after 10 mins; assay type: cell-based
Transient receptor potential cation channel subfamily M member 8, sequence (Q7Z2W7 whole entry): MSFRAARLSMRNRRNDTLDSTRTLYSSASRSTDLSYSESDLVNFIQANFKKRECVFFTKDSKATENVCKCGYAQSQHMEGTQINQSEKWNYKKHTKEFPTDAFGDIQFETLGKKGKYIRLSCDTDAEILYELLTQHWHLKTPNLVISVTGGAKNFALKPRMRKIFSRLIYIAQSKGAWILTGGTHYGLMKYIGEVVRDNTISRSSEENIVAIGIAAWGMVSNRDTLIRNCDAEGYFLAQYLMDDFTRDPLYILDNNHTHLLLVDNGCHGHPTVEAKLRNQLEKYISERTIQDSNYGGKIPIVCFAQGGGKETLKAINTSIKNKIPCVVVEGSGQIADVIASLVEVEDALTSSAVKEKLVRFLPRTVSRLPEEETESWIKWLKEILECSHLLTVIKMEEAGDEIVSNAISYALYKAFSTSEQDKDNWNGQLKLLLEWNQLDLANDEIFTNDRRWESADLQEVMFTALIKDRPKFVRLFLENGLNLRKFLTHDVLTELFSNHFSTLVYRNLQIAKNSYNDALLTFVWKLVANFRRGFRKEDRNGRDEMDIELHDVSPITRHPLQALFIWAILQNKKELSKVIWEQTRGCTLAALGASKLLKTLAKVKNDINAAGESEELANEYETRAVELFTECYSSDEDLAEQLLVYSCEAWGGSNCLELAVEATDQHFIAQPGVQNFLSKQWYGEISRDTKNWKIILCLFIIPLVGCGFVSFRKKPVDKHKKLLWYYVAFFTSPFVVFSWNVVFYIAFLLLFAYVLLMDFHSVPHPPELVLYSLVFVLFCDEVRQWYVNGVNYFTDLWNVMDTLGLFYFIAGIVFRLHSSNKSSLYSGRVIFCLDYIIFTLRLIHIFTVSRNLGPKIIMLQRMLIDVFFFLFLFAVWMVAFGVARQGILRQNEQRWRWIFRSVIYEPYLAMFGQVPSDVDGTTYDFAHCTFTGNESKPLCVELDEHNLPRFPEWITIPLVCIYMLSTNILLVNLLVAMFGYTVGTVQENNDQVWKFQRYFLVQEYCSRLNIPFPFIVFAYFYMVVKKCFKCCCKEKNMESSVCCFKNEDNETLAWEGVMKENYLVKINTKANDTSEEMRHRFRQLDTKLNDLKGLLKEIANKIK

[11] = AUC (infinity) in Wistar rat at 32.50 mg/kg, ip; assay type: ADME, organism-based; design: dose 32.5 mg/kg, route intraperitoneal, time infinity; details: in vivo, 32.5 mg/kg
[12] = molecular target: Adenosine receptor A2a (Homo sapiens) (UniProt P29274); assay: Binding affinity to human adenosine A2A receptor assessed as inhibition of control specific binding at 10 uM
Adenosine receptor A2a (Homo sapiens), sequence (P29274 whole entry): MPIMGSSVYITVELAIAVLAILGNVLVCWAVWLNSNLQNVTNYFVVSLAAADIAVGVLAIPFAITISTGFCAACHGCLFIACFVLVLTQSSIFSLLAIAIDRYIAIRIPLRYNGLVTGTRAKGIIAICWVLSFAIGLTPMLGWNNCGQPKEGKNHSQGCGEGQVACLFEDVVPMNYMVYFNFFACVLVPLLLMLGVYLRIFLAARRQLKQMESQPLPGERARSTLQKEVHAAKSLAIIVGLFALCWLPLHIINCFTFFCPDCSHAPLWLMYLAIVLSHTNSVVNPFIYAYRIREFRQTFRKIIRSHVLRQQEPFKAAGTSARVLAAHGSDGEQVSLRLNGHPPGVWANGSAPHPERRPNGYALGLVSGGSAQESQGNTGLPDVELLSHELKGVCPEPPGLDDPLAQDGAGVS

[13] = molecular target: Adrenergic receptor alpha-2 (Homo sapiens) (UniProt P08913+P18825+P18089); assay: Binding affinity to non-selective alpha2 adrenergic receptor (unknown origin) assessed as inhibition of control specific binding at 10 uM; assay type: protein assay
[14] = molecular target: Type-1 angiotensin II receptor (Homo sapiens) (UniProt P30556); assay: Binding affinity to human AT1 receptor assessed as inhibition of control specific binding at 10 uM
[15] = molecular target: Cannabinoid receptor 1 (Homo sapiens) (UniProt P21554); assay: Binding affinity to human CB1 receptor assessed as inhibition of control specific binding at 10 uM
[16] = molecular target: Galanin receptor type 2 (Homo sapiens) (UniProt O43603); assay: Binding affinity to human GAL2 receptor assessed as inhibition of control specific binding at 10 uM
[17] = molecular target: C-X-C chemokine receptor type 2 (Homo sapiens) (UniProt P25025); assay: Binding affinity to human CXCR2 receptor assessed as inhibition of control specific binding at 10 uM
C-X-C chemokine receptor type 2 (Homo sapiens), sequence (P25025 whole entry): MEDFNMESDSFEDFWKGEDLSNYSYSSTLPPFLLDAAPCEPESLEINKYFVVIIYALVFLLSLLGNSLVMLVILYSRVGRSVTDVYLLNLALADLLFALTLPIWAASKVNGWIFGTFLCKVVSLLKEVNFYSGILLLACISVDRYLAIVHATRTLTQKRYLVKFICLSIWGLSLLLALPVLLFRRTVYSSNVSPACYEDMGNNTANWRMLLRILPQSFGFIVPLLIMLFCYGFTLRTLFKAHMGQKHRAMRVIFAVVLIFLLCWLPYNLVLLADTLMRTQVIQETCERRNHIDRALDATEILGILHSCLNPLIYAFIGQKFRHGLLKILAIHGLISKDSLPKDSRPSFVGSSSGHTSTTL

[18] = molecular target: C-C chemokine receptor type 1 (Homo sapiens) (UniProt P32246); assay: Binding affinity to human CCR1 receptor assessed as inhibition of control specific binding at 10 uM
[19] = molecular target: Histamine H1 receptor (Homo sapiens) (UniProt P35367); assay: Binding affinity to human H1 receptor assessed as inhibition of control specific binding at 10 uM
[20] = molecular target: Melanocortin receptor 4 (Homo sapiens) (UniProt P32245); assay: Binding affinity to human MC4 receptor assessed as inhibition of control specific binding at 10 uM
[21] = molecular target: Melatonin receptor type 1A (Homo sapiens) (UniProt P48039); assay: Binding affinity to human MT1 receptor assessed as inhibition of control specific binding at 10 uM
Melatonin receptor type 1A (Homo sapiens), sequence (P48039 whole entry): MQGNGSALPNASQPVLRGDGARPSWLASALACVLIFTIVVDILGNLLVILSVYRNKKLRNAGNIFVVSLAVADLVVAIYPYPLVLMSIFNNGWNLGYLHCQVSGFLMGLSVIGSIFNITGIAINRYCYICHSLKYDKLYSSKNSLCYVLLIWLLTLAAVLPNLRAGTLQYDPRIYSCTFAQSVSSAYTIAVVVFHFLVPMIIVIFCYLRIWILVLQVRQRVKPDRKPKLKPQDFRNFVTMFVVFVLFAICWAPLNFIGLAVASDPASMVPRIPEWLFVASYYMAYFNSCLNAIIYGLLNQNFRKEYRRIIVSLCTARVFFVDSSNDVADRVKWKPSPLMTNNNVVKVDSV

[22] = molecular target: Muscarinic acetylcholine receptor M1 (Homo sapiens) (UniProt P11229); assay: Binding affinity to human M1 receptor assessed as inhibition of control specific binding at 10 uM
[23] = molecular target: Muscarinic acetylcholine receptor M2 (Homo sapiens) (UniProt P08172); assay: Binding affinity to human M2 receptor assessed as inhibition of control specific binding at 10 uM
[24] = molecular target: Substance-K receptor (Homo sapiens) (UniProt P21452); assay: Binding affinity to human NK2 receptor assessed as inhibition of control specific binding at 10 uM
Substance-K receptor (Homo sapiens), sequence (P21452 whole entry): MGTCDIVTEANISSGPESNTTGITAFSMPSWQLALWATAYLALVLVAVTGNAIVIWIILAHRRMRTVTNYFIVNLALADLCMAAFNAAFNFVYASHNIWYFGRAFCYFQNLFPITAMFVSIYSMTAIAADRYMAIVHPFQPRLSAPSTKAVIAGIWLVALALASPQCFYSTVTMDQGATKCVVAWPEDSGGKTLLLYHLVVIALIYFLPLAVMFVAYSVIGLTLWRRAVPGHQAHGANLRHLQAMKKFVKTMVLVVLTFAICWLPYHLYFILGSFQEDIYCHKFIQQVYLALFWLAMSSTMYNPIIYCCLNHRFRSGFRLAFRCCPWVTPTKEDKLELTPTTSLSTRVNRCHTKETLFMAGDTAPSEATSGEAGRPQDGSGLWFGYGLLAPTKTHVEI

[25] = molecular target: Neuropeptide Y receptor type 1 (Homo sapiens) (UniProt P25929); assay: Binding affinity to human Y1 receptor assessed as inhibition of control specific binding at 10 uM
[26] = molecular target: Neurotensin receptor type 1 (Homo sapiens) (UniProt P30989); assay: Binding affinity to human NT1 receptor assessed as inhibition of control specific binding at 10 uM
[27] = molecular target: Delta-type opioid receptor (Homo sapiens) (UniProt P41143); assay: Binding affinity to human detla2 opioid receptor assessed as inhibition of control specific binding at 10 uM
Delta-type opioid receptor (Homo sapiens), sequence (P41143 whole entry): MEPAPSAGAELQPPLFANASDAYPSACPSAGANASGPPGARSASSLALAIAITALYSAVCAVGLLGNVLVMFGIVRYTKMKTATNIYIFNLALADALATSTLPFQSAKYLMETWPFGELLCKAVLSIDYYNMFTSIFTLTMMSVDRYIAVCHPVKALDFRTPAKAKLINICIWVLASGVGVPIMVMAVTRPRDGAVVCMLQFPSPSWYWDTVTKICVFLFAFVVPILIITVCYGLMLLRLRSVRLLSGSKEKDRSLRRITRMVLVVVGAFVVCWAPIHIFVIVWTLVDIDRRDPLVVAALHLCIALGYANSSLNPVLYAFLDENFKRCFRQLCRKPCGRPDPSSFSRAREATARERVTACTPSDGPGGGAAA

[28] = molecular target: Nociceptin receptor (Homo sapiens) (UniProt P41146); assay: Binding affinity to human ORL1 receptor assessed as inhibition of control specific binding at 10 uM
[29] = molecular target: Thromboxane A2 receptor (Homo sapiens) (UniProt P21731); assay: Binding affinity to human TP receptor assessed as inhibition of control specific binding at 10 uM
[30] = molecular target: 5-hydroxytryptamine receptor 1A (Homo sapiens) (UniProt P08908); assay: Binding affinity to human 5-HT1A receptor assessed as inhibition of control specific binding at 10 uM
[31] = molecular target: 5-hydroxytryptamine receptor 1B (Homo sapiens) (UniProt P28222); assay: Binding affinity to human 5-HT1B receptor assessed as inhibition of control specific binding at 10 uM
[32] = molecular target: 5-hydroxytryptamine receptor 3A (Homo sapiens) (UniProt P46098); assay: Binding affinity to human 5-HT3 receptor assessed as inhibition of control specific binding at 10 uM
5-hydroxytryptamine receptor 3A (Homo sapiens), sequence (P46098 whole entry): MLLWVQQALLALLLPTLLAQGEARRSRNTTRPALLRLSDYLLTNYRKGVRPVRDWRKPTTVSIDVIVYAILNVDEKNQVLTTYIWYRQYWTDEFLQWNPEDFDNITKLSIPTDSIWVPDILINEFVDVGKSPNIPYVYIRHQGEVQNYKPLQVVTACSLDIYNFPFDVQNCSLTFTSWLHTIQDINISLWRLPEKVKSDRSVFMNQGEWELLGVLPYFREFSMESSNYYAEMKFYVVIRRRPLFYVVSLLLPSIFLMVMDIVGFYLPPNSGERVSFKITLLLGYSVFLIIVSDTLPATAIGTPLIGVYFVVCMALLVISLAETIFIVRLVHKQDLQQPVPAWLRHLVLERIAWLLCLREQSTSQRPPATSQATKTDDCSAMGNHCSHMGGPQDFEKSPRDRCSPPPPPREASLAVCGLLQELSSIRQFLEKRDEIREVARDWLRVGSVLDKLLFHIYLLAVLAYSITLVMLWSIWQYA

Homo sapiens [33] = organism: Homo sapiens; assay: Binding affinity to SST receptor (unknown origin) assessed as inhibition of control specific binding at 10 uM
[34] = molecular target: potassium channel (voltage-gated potassium channel family) (Homo sapiens, UniProt O43525+O43526+O95259+P16389+P17658+P22001+P22459+P22460+P48547+P51787+P56696+Q03721+Q09470+Q12809+Q14003+Q14721+Q16322+Q6PIU1+Q8NCM2+Q8TAE7+Q8TDN1+Q8TDN2+Q92953+Q96KK3+Q96L42+Q96PR1+Q96RP8+Q9BQ31+Q9H252+Q9H3M0+Q9NR82+Q9NS40+Q9NSA2+Q9NZV8+Q9UIX4+Q9UJ96+Q9UK17+Q9ULD8+Q9ULS6+Q9UQ05); assay: Binding affinity to potassium channel (unknown origin) assessed as inhibition of control specific binding at 10 uM; assay type: protein assay
Homo sapiens [35] = organism: Homo sapiens; assay: Binding affinity to SK+ calcium channel (unknown origin) assessed as inhibition of control specific binding at 10 uM
Homo sapiens [36] = organism: Homo sapiens; assay: Binding affinity to sodium channel site-2 (unknown origin) assessed as inhibition of control specific binding at 10 uM

Sodium-dependent dopamine transporter (Homo sapiens), sequence (Q01959 whole entry): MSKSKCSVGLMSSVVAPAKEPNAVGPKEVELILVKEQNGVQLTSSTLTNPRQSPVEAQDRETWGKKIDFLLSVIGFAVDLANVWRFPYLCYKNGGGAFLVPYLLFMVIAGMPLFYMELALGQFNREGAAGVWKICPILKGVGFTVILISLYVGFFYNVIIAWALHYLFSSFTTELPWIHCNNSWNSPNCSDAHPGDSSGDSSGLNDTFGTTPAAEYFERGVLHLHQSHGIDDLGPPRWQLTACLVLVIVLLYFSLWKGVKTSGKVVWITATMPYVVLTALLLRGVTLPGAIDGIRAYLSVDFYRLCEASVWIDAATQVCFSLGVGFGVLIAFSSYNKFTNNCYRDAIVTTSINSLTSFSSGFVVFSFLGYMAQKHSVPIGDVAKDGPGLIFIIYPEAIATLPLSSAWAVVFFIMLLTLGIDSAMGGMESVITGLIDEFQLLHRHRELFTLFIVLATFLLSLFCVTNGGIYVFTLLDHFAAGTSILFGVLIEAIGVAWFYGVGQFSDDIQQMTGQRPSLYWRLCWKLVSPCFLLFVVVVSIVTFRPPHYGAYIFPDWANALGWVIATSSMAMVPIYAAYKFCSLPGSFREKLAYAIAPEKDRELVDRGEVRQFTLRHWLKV

inhibition [1]: 10%
Cmax [2]: 3820 ng/mL
bioavailability [3]: 46.8%
fraction unbound [4]: 0.01
fraction unbound [5]: 0.01
IC50 [6]: 2.1 µM
IC50 [7]: 0.057 µM
IC50 [8]: > 10 µM
IC50 [9]: > 30 µM
IC50 [10]: 30 µM
AUC(0-inf) [11]: 16500 ng·h/mL
inhibition [12]: -7%
inhibition [13]: -1%
inhibition [14]: -6%
inhibition [15]: 3%
inhibition [16]: 4%
inhibition [17]: -4%
inhibition [18]: -5%
inhibition [19]: 4%
inhibition [20]: -8%
inhibition [21]: 5%
inhibition [22]: 76%
inhibition [23]: 6%
inhibition [24]: 15%
inhibition [25]: -8%
inhibition [26]: -6%
inhibition [27]: 6%
inhibition [28]: -2%
inhibition [29]: -6%
inhibition [30]: -4%
inhibition [31]: -2%
inhibition [32]: -3%
inhibition (Homo sapiens [33]): -1%
inhibition at 10 µM [34]: -25%
inhibition (Homo sapiens [35]): -4%
inhibition (Homo sapiens [36]): 17%
SMILES: CC(C)N1CCN(S(=O)(=O)c2ccc(NC(=O)c3ccc(C(F)(F)F)cc3[N+](=O)[O-])cc2)CC1

Reference: ChEMBL document CHEMBL3612012, “Identification of orally-bioavailable antagonists of the TRPV4 ion-channel” (Bioorg Med Chem Lett, 2015)
